Results taken from patent US20080132565A1, “Polycyclic Macrolactones” (priority 2003, published 2008).
Like-named read-outs stand apart in the source and are kept apart here.

Assays:
[1] = physicochemical properties: solubility
[2] = test system: Arthrobacter aurescens DSM 20166; assay: agar diffusion test; format: cell-based; settings: CM, 10 μl per filter disk
Experimental: (§1) The Gram-negative bacteria and fungi which were tested were insensitive to the abyssomicins.

[3] = test system: Bacillus subtilis DSM 10; assay: agar diffusion test; format: cell-based; settings: 10 μl per filter disk
Experimental: as §1

[4] = test system: Brevibacillus brevis DSM 30; assay: agar diffusion test; format: cell-based; settings: 10 μl per filter disk
Experimental: as §1

[5] = test system: Rhodococcus erythropolis DSM 1069; assay: agar diffusion test; format: cell-based; settings: 10 μl per filter disk
Experimental: as §1

[6] = test system: Staphylococcus aureus DSM 20231; assay: agar diffusion test; format: cell-based; settings: CM, 10 μl per filter disk
Experimental: as §1

[7] = test system: Streptomyces viridochromogenes Tü 57; assay: agar diffusion test; format: cell-based; settings: CM, 10 μl per filter disk
Experimental: as §1

[8] = test system: Bacillus subtilis DSM 10; assay: MIC dilution series test; format: cell-based; settings: 2 ml test tube scale, shaker at 120 rpm
Experimental: (§2) The minimum inhibitory concentration (MIC) of abyssomicin C was determined in a dilution series test. As expected, the test organisms are substantially more sensitive to abyssomicin C in chemically defined medium.

[9] = test system: Rhodococcus erythropolis DSM 1069; assay: MIC dilution series test; format: cell-based; settings: CM (complex medium); 2 ml test tube scale, shaker at 120 rpm
Experimental: as §2

[10] = test system: Staphylococcus aureus DSM 20231; assay: MIC dilution series test; format: cell-based; settings: CM (complex medium); 2 ml test tube scale, shaker at 120 rpm
Experimental: as §2

[11] = test system: Gram-positive bacteria; assay: agar diffusion test, activity spectrum; format: cell-based; settings: Gram-positive bacteria tested
Experimental: as §1

## CC1CC(C)/C(O)=C2/C(=O)OC34CC(C)C5OC23C(CC4C5O)C1=O (stereo not drawn) [abyssomicin D]
[1]; in methanol and DMSO
  solubility: soluble

## CC1CC(C)C2(O)CC(=NO2)C2C(O)C3OC4=C(C(=O)OC42CC3C)C1=O (stereo not drawn) [abyssomicin B]
[1]; in methanol and DMSO
  solubility: soluble

## abyssomicin C
[2]; 0.3 mg/ml
  inhibition zone diameter: 10 mm
[2]; 1 mg/ml
  inhibition zone diameter: 14 mm
[3]; CM, 0.1 mg/ml
  inhibition zone diameter: 10 mm
[3]; CM, 0.3 mg/ml
  inhibition zone diameter: 12 mm
[3]; CM, 1 mg/ml
  inhibition zone diameter: 16 mm
[3]; MM, 0.1 mg/ml
  inhibition zone diameter: 14 mm
[3]; MM, 0.3 mg/ml
  inhibition zone diameter: 19 mm
[3]; MM, 1 mg/ml
  inhibition zone diameter: 26 mm
[4]; CM, 0.1 mg/ml
  inhibition zone diameter: 9 mm
[4]; CM, 0.3 mg/ml
  inhibition zone diameter: 12 mm
[4]; CM, 1 mg/ml
  inhibition zone diameter: 17 mm
[4]; MM, 0.1 mg/ml
  inhibition zone diameter: 19 mm
[4]; MM, 0.3 mg/ml
  inhibition zone diameter: 24 mm
[4]; MM, 1 mg/ml
  inhibition zone diameter: 30 mm
[5]; CM (first line, r17), 0.1 mg/ml
  inhibition zone diameter: 15 mm
[5]; CM (first line, r17), 0.3 mg/ml
  inhibition zone diameter: 18 mm
[5]; CM (first line, r17), 1 mg/ml
  inhibition zone diameter: 27 mm
[5]; CM (second line, r18), 0.1 mg/ml
  inhibition zone diameter: 21 mm
[5]; CM (second line, r18), 0.3 mg/ml
  inhibition zone diameter: 28 mm
[5]; CM (second line, r18), 1 mg/ml
  inhibition zone diameter: 30 mm
[6]; 0.1 mg/ml
  inhibition zone diameter: 9 mm
[6]; 0.3 mg/ml
  inhibition zone diameter: 11 mm
[6]; 1 mg/ml
  inhibition zone diameter: 19 mm
[7]; 0.3 mg/ml
  inhibition zone diameter: 9 mm
[7]; 1 mg/ml
  inhibition zone diameter: 11 mm
[8]; CM (complex medium)
  Minimum inhibitory concentration (MIC): 10 µg/mL
[8]; MM (chemically defined medium)
  Minimum inhibitory concentration (MIC): 0.1 µg/mL
[9]
  Minimum inhibitory concentration (MIC): 10 µg/mL
[10]
  Minimum inhibitory concentration (MIC): 100 µg/mL
[11]
  antibiotic effect: antibiotic effect
[1]
  solubility: soluble
